“Also recorded” adds a separate entry of the source.

This assay relates to CD4^+CD25^+FOXP3^+ cells. Briefly: Ex vivo dendritic cell challenge and T cell co-culture with 12,13-DiHOME. In kind it is cell-based, human. On the procedure: Ex vivo dendritic cell challenge and T cell co-culture. Fecal samples from five of ten NGM1 and seven of eight NGM3 neonates that had undergone metabolic profiling were used (biological replicates). Excluded samples from these groups had insufficient volume for analyses. Fecal samples were homogenized 1 g ml^−1 (w:v) in pre-warmed phosphate-buffered saline (PBS) containing 20% FBS (FBS). Samples were vortexed, incubated (37° C., 10 min) and centrifuged (14,000 rpm, 30 min). Supernatant was filter-sterilized through a 0.2-μm filter before being used in the dendritic cell (DC) T cell assay described below. PBS was used as the negative control. Treatment conditions used for the DiHOME experiment included: 75 μM, 130 μM and 200 μM 12,13 DiHOME (Cayman Chemical, Ann Arbor, Mich.) solubilized in 0.4%, 0.15% and 0.05% DMSO, respectively. DiHOME solutions were added to R10 media (Roswell Park Memorial Institute media 1640 with 10% heat-inactivated FBS (antigen activator) and 2 mM 1-glutamine and 100 U ml^−1 penicillin-streptomycin added; Life Technologies) and exposed to DCs within 1 h of preparation. Controls included PBS and DMSO (delivered in R10 media) at corresponding percentages used to dissolve the different concentrations of DiHOME.
Peripheral blood mononuclear cells (PBMCs) were purified from plasma obtained from healthy, de-identified human donors (Blood Centers of the Pacific, San Francisco, Calif.) through the cell-sourcing program that ensures donor confidentiality. Donors signed an agreement acknowledging that their blood may be used for research. PBMCs were isolated using Ficoll-Hypaque gradient centrifugation, washed twice with R10 media and incubated for 18 h. Dendritic cells (DCs) were isolated from PBMCs using the EasySep Human Pan-DC Pre-Enrichment Kit (STEMCELL Technologies, Vancouver, BC). DCs (0.5×10^6 cells ml^−1) from two donors (biological replication) were treated in triplicate (treatment replicate) with either cell-free fecal water ([…]) or varying concentrations of DiHOME, and cultured in R10 media supplemented with 10 ng ml^−1 GM-CSF and 20 ng ml^−1 IL-4 at 37° C.^27 for 2 d, for the fecal-water assay, or 5 d, for the DiHOME experiment. For the DiHOME experiment, freshly prepared media containing DiHOME or control exposures was replaced every 48 h. For the fecal-water experiment, the assay was repeated twice on one donor (technical replicates) and once on donor B owing to insufficient numbers of cells recovered from the latter donor. Treatment replicates were also considered biological replicates because the human donor cells are not clonal.
Twenty-four hours before co-culture with CD4^+ T cells, DC maturation was stimulated by using DC growth mediators (10 ng ml^−1 […] [(TNF-α), 10 ng ml^−1 IL-1b, 10 ng ml^−1 IL-6 and […] (PGE2)]. In preparation for co-culture, DCs were washed in fresh R10 media, counted via flow cytometry and plated in TexMACs Medium (Miltenyi Biotec, San Diego, Calif.) at 0.5×10^6 live CD45^+ cells per well.
Autologous T lymphocytes were purified from the PBMCs using a naïve CD4^+ T cell isolation kit (Miltenyi Biotec). After purification, naïve autologous CD4^+ T cells were suspended in the TexMACS Medium (Miltenyi Biotec) and added to the treated DCs at a ratio of 10:1 in the presence of soluble anti-CD28 and anti-CD49d ([…]). […] Cytokine secretion was evaluated by cytometric bead array, following the manufacturer's protocol (BD Biosciences). […]

With `CCCCCC(O)C(O)C/C=C\CCCCCCCC(=O)O` (centres unmarked) [12,13-DiHOME], the “proportion of CD4^+CD25^+FOXP3^+ cells” value runs as follows: (75 μM, compared to vehicle control (LME P=0.04)) “significantly reduced”; (130 μM, compared to vehicle control (LME P<0.001)) “significantly reduced”; (200 μM, compared to vehicle control (LME P=0.001)) “significantly reduced”; (all concentrations examined, compared with vehicle treatment) “recapitulated the effect of NGM3 fecal water; also recorded: reduced”. Where the note is “130 μM, preliminary assays”, the “effect size for the suppression of CD4^+CD25^+FOXP3^+” value is reported as “approximately seven”.

(Values after patent US10668118B2, “Microbial consortium and uses thereof” (The Regents of the University of California, priority 2016, dated 2020).)
